Measured values as given in patent US20250295646A1, “METHODS OF USE OF T-TYPE CALCIUM CHANNEL MODULATORS” (Praxis Precision Medicines, Inc., priority 2022, published 2025).

What was measured:
[1] = Example 16 Part B: treatment emergent adverse events, down-titration, discontinuation
Description: (§1) Patients were scheduled for Safety Follow-up on Day 70 (±1 day) in the clinic for the final clinical trial assessment.

[2] = tested on: adult patients with essential tremor; test: Example 16: Patient Global Impression of Change (PGI-C); format: in vivo, human; settings: for participants with PGI-C score minimally improved: Part A; for participants with PGI-C much improved / participants with PGI-C score reflecting no change in symptoms: Part B OLT
Description: as §1

[3] = Within-participant escalating dose trial Part B: safety and tolerability; format: in vivo, human; settings: for dose levels well-tolerated with titration: titrated dosing schedule, per day
[4] = tested on: sigma band EEG power during NREM sleep; test: EEG/PSG: sigma band EEG power during NREM sleep; format: in vivo, human; settings: 20 mg tablet and 40 mg tablet (FIG. 12)
hCav3.2 = target: T1, hCav3.2 (Homo sapiens, UniProt O95180); test: PatchXpress patch clamp, voltage dependent block (half-inactivated state); format: cell-based
T1 construct: expressed in transfected cells; host or cells: HEK-293
T1 sequence (O95180 whole entry): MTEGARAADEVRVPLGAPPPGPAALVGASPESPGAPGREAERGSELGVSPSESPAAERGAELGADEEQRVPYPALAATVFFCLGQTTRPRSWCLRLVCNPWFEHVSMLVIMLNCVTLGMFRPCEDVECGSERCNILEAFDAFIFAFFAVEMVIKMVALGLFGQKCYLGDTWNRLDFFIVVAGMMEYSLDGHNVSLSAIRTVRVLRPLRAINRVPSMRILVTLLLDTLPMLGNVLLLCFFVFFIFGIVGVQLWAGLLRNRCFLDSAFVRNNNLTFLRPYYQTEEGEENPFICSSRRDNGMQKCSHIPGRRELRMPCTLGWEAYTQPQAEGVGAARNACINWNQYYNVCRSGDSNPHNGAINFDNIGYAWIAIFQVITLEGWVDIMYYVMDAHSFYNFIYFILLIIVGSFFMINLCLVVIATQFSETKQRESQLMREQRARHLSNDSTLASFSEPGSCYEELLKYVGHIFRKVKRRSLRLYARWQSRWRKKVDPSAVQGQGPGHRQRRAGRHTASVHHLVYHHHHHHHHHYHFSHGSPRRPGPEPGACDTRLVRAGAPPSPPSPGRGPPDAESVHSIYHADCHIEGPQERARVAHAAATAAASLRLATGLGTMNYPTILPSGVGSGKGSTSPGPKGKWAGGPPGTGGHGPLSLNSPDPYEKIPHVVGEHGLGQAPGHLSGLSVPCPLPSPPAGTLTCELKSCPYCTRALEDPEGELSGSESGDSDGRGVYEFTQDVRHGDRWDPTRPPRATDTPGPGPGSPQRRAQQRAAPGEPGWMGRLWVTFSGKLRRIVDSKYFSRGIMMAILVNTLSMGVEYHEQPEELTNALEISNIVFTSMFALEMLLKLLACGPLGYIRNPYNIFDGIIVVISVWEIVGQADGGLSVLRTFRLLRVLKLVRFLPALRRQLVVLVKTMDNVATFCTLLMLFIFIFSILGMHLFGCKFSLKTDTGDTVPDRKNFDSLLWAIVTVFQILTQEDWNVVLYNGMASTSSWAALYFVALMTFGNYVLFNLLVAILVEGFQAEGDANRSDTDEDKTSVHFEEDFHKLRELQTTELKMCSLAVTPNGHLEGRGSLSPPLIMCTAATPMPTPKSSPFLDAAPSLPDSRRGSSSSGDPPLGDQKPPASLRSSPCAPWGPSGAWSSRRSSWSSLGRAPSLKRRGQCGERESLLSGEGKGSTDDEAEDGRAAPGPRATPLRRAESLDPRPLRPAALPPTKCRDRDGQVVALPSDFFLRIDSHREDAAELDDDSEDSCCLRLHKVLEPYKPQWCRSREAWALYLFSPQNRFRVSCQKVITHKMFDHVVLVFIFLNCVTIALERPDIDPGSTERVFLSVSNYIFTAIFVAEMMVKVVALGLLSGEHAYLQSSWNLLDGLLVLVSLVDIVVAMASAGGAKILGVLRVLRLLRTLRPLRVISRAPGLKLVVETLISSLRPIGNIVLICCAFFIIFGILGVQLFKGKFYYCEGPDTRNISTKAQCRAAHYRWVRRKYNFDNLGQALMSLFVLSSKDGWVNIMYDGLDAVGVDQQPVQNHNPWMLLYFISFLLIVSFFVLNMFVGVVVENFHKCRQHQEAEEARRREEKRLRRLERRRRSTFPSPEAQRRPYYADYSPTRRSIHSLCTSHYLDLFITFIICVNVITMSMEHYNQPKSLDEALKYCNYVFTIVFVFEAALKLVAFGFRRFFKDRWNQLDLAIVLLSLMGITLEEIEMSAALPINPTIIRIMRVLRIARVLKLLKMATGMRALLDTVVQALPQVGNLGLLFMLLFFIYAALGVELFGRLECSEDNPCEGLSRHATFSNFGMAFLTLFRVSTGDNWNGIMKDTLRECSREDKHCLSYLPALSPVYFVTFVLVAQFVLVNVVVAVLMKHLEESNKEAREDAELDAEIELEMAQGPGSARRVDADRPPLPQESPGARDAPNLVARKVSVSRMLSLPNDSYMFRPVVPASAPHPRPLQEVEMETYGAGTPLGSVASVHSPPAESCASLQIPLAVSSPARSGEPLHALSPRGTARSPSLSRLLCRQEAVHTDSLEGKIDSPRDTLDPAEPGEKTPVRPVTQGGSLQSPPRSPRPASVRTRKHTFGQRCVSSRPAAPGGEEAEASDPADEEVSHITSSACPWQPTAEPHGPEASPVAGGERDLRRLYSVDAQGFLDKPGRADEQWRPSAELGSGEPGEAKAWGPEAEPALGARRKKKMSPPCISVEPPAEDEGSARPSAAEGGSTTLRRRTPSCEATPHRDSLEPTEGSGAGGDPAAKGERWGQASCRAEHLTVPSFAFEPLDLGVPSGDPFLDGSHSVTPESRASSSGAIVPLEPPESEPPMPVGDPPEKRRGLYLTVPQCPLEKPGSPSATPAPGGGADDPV
Description: The voltage dependence of calcium channel isoforms was determined by comparing the activity of resting (Tonic Block) and half-inactivated (Voltage Dependent Block) voltages across various concentrations of Formula (II). First, HEK-293 cells containing hCav3.1, hCav3.2, or hCav3.3 calcium channel isoforms were prepared by seeding at 2×10^6 cells per flask in culture for 2 days; the cells were then harvested at about 6×10^6 cells. Harvested cells were washed once in DPBS for approximately 30 minutes, and 1 mL of 1× (0.05%) Trypsin-EDTA was added, swirled, and allowed to sit on the cells for approximately 4 minutes. […]
Pharmacology was measured during Epoch 1. Percent inhibition was calculated as: 100*((([Step 2+Step 5]/2)−Step3)/(Step 2+Step 5/2)), wherein Step 2 is the peak current measured at baseline, Step 5 is the current measured during the wash period, and Step 3 is the peak current measured during application of the compound. […]
The effect of the compound on peak current amplitude was monitored using the voltage protocol described above and washed out after reaching steady state as determined by PatchXpress stability scripts. […] Washout current for the calculation of inhibition was determined by resetting the holding potential to the previously determined half-inactivation potential (V0.5) and measuring peak current from this holding potential. […]

[5] = Part B Randomized Withdrawal (N = 11), arm (Formula (I) or placebo) not stated
[6] = Part B, reported by the same patient
[7] = Part B RWD (RWAS), Day 56, n 6, change from randomization baseline

CC(C)(C)NC(=O)CN1CCC(CNC(=O)c2cc(F)cc(Cl)c2)CC1 [compound of formula (I), N-((1-(2-(tert-butylamino)-2-oxoethyl)piperidin-4-yl)methyl)-3-chloro-5-fluorobenzamide]
TEAE associated with discontinuation: Confusional state ([1]; Part B): 1 | TEAE associated with discontinuation: Cyst ([1]; Part B): 1 | TEAE associated with discontinuation: Disturbance in attention ([1]; Part B): 1 | TEAE leading to down titration: Confusional state ([1]; Part B): 1 | TEAE leading to down titration: Disturbance in attention ([1]; Part B): 1 | TEAE leading to down titration: Dizziness postural ([1]; Part B): 1 | TEAE leading to down titration: Paraesthesia ([1]; Part B): 1 | TEAE leading to down titration: Somnolence ([1]; Part B): 1 | participants who discontinued administration ([1]; Part B): three of 14 participants | participants who down-titrated ([1]; Part B): Four of 14 participants | TEAE Anxiety, participants ([1]; Part B Open Label (N = 14)): 1 | TEAE Cognitive Disorder, participants ([1]; Part B Open Label (N = 14)): 1 | TEAE Constipation, participants ([1]; Part B Open Label (N = 14)): 6 | TEAE Dizziness, participants ([1]; Part B Open Label (N = 14)): 4 | TEAE Fatigue, participants ([1]; Part B Open Label (N = 14)): 3 | TEAE Headache, participants ([1]; Part B Open Label (N = 14)): 1 | TEAE Insomnia, participants ([1]; Part B Open Label (N = 14)): 2 | TEAE Paraesthesia, participants ([1]; Part B Open Label (N = 14)): 2 | TEAE Fatigue, participants [1, 5]: 1 | TEAE Headache, participants [1, 5]: 1 | dosing well-tolerated with titration ([1]; Part B, essential tremor patients): up to 120 mg | TEAE associated with discontinuation: Gait disturbances [1, 6]: 1 | TEAE associated with discontinuation: Hypotension [1, 6]: 1 | TEAE associated with discontinuation: Muscle fatigue [1, 6]: 1 | TEAE associated with discontinuation: Speech disorder [1, 6]: 1 | PGI-C Score 1 very much improved ([2]; Part A (FAS), Day 7, n 6): 0 n (%) | PGI-C Score 2 Much improved ([2]; Part A (FAS), Day 7, n 6): 1 n (%) | PGI-C Score 3 minimally improved ([2]; Part A (FAS), Day 7, n 6): 2 (33.3) n (%) | PGI-C Score 4 no change ([2]; Part A (FAS), Day 7, n 6): 2 (33.3) n (%) | PGI-C Score 5 minimally worse ([2]; Part A (FAS), Day 7, n 6): 0 n (%) | PGI-C Score 6 much worse ([2]; Part A (FAS), Day 7, n 6): 1 (16.7) n (%) | PGI-C Score 7 very much worse ([2]; Part A (FAS), Day 7, n 6): 0 n (%) | PGI-C Score 1 very much improved ([2]; Part A (FAS), Day 14, n 6): 0 n (%) | PGI-C Score 2 Much improved ([2]; Part A (FAS), Day 14, n 6): 1 n (%) | PGI-C Score 3 minimally improved ([2]; Part A (FAS), Day 14, n 6): 5 (83.3) n (%) | PGI-C Score 4 no change ([2]; Part A (FAS), Day 14, n 6): 0 n (%) | PGI-C Score 5 minimally worse ([2]; Part A (FAS), Day 14, n 6): 0 n (%) | PGI-C Score 6 much worse ([2]; Part A (FAS), Day 14, n 6): 0 n (%) | PGI-C Score 7 very much worse ([2]; Part A (FAS), Day 14, n 6): 0 n (%) | participants with PGI-C score minimally improved ([2]; Day 7): 33.3% | participants with PGI-C score minimally improved ([2]; Day 14): 83.3% | PGI-C Score 1 very much improved ([2]; Part B OLT (FAS), Day 7, n 13): 0 n (%) | PGI-C Score 2 Much improved ([2]; Part B OLT (FAS), Day 7, n 13): 1 n (%) | PGI-C Score 3 minimally improved ([2]; Part B OLT (FAS), Day 7, n 13): 5 (38.5) n (%) | PGI-C Score 4 no change ([2]; Part B OLT (FAS), Day 7, n 13): 7 (53.8) n (%) | PGI-C Score 5 minimally worse ([2]; Part B OLT (FAS), Day 7, n 13): 0 n (%) | PGI-C Score 6 much worse ([2]; Part B OLT (FAS), Day 7, n 13): 0 n (%) | PGI-C Score 7 very much worse ([2]; Part B OLT (FAS), Day 7, n 13): 0 n (%) | PGI-C Score 1 very much improved ([2]; Part B OLT (FAS), Day 21, n 12): 0 n (%) | PGI-C Score 2 Much improved ([2]; Part B OLT (FAS), Day 21, n 12): 1 n (%) | PGI-C Score 3 minimally improved ([2]; Part B OLT (FAS), Day 21, n 12): 5 (41.7) n (%) | PGI-C Score 4 no change ([2]; Part B OLT (FAS), Day 21, n 12): 6 (50.0) n (%) | PGI-C Score 5 minimally worse ([2]; Part B OLT (FAS), Day 21, n 12): 0 n (%) | PGI-C Score 6 much worse ([2]; Part B OLT (FAS), Day 21, n 12): 0 n (%) | PGI-C Score 7 very much worse ([2]; Part B OLT (FAS), Day 21, n 12): 0 n (%) | PGI-C Score 1 very much improved ([2]; Part B OLT (FAS), Day 42, n 11): 0 n (%) | PGI-C Score 2 Much improved ([2]; Part B OLT (FAS), Day 42, n 11): 3 n (%) | PGI-C Score 3 minimally improved ([2]; Part B OLT (FAS), Day 42, n 11): 4 (36.4) n (%) | PGI-C Score 4 no change ([2]; Part B OLT (FAS), Day 42, n 11): 4 (36.4) n (%) | PGI-C Score 5 minimally worse ([2]; Part B OLT (FAS), Day 42, n 11): 0 n (%) | PGI-C Score 6 much worse ([2]; Part B OLT (FAS), Day 42, n 11): 0 n (%) | PGI-C Score 7 very much worse ([2]; Part B OLT (FAS), Day 42, n 11): 0 n (%) | participants with PGI-C much improved ([2]; Day 7): 7.7% | participants with PGI-C score reflecting no change in symptoms ([2]; Day 7): 53.8% | participants with PGI-C much improved ([2]; Day 42): 27.3% | participants with PGI-C score reflecting no change in symptoms ([2]; Day 42): 36.4% | PGI-C Score 1 very much improved [2, 7]: 0 n (%) | PGI-C Score 2 Much improved [2, 7]: 0 n (%) | PGI-C Score 3 minimally improved [2, 7]: 2 (33.3) n (%) | PGI-C Score 4 no change [2, 7]: 3 (50.0) n (%) | PGI-C Score 5 minimally worse [2, 7]: 0 n (%) | PGI-C Score 6 much worse [2, 7]: 0 n (%) | PGI-C Score 7 very much worse [2, 7]: 1 (16.7) n (%) | maximum tolerated dosage in the titration scheme ([3]; highest dose tested 120 mg): no maximum tolerated dosage was identified | Cardiac Disorders ([3]; human, in vivo, 31 days): 4 n (%) | Chest discomfort ([3]; human, in vivo, 31 days): 2 n (%) | Dizziness ([3]; human, in vivo, 31 days): 3 n (%) | General Disorders and Administration Site Conditions ([3]; human, in vivo, 31 days): 6 n (%) | Headache ([3]; human, in vivo, 31 days): 2 n (%) | Intoxicated sensation ([3]; human, in vivo, 31 days): 2 n (%) | Medical device site dermatitis ([3]; human, in vivo, 31 days): 3 n (%) | Nervous System Disorders ([3]; human, in vivo, 31 days): 5 n (%) | Palpitations ([3]; human, in vivo, 31 days): 2 n (%) | Participants with at least one TEAE ([3]; human, in vivo, 31 days): 12 n (%) | treatment related ECG or EEG abnormalities ([3]; in vivo): no treatment related ECG or EEG abnormalities | dose levels well-tolerated with titration [3]: ≤ 120 mg

CC(C)(C)NC(=O)CN1CCC(CNC(=O)c2cc(F)cc(Cl)c2)CC1.Cl [compound of formula (II), N-((1-(2-(tert-butylamino)-2-oxoethyl)piperidin-4-yl)methyl)-3-chloro-5-fluorobenzamide hydrochloride]
NREM sigma band compared to placebo control [4]: decrease | tonic block/voltage dependent block (TB/VDB) ratio (hCav3.2): 2.0 | dose levels well-tolerated with titration [3]: up to 120 mg
